Reference: patent US20250188103A1, “HETEROCYCLIC GLP-1 AGONISTS” (Gasherbrum Bio, Inc., priority 2022, published 2025)

Molecular target: T1, GLP-1 Receptor (Homo sapiens, UniProt P43220)
T1 construct: HD Biosciences / HDB (Method 3); host or cells: CHO-K1 (Methods 1, 2) or HEK293/CRE-Luc (Method 3)
Test: GLP-1R agonist cAMP stimulation assay
Assay type: cell-based
Conditions: cells stably expressing the GLP-1 Receptor (method not given)
Experimental: Activation of GLP-1 receptor is known to stimulate cyclic AMP (cAMP) production in cells which indicates primary coupling to the Gas subunit of the G protein heterotrimeric complex.
Method 1: To optimize functional activity directed toward Gas coupling, a CHO-K1 cell line developed by DiscoverX stably expressing the GLP-1 Receptor is used. Cells expressing GLP-1 receptor are plated in a 384-well microtiter plates and incubated overnight at 37° C. with 5% CO2 to allow the cells to attach and grow. Media is then aspirated from the cells and replaced with 15 μL Hanks Balanced Salt Solution (HBSS)/5 mM Hepes:0.5 mM IBMX 0.1% BSA (pH 7.4) [Stimulation Buffer]. […] previously generated compound sample stocks at 4× final concentration in Stimulation Buffer are then added to the cells and allowed to incubate at 37° C. for 30 or 60 minutes.
After incubation the assay signal is generated using a europium chelate-labeled cAMP tracer which competes with cAMP for binding sites on a cAMP-specific monoclonal antibody labeled with ULight™ dye. When antibodies are bound to the Eu-labeled cAMP tracer FRET transfer between the Eu chelate and ULight™ labeled antibodies is detected. Free cAMP produced from stimulated cells competes with the Eu-cAMP tracer for binding to the ULight™-mAb causing a decrease in the TR-FRET signal in a dose dependent manner.
The method for detection of cAMP using the Eu-chelate technology requires incubation with Eu-cAMP tracer solution+ULight™-anti-cAMP solution for one hour at room temperature. Microplates are read following signal generation with a PerkinElmer Envision instrument utilizing TR-FRET signal detection. Percentage activity is calculated using the following formula: […]
Method 2: To optimize functional activity directed toward Gas coupling, a CHO-K1 cell line developed by DiscoverX stably expressing the GLP-1 Receptor is used. Cells expressing GLP-1 receptor are plated in a 384-well microtiter plates and incubated overnight at 37° C. with 5% CO2 to allow the cells to attach and grow. Media is then aspirated from the cells and replaced with 15 μL 2:1 Hanks Balanced Salt Solution (HBSS)/10 mM Hepes: cAMP XS+Ab reagent. Five microliters (5 μL) of previously generated compound sample stocks at 4× final concentration in assay buffer are then added to the cells and allowed to incubate at 37° C. for 30 or 60 minutes.
After incubation the assay signal is generated using enzyme fragment complementation (EFC). In EFC, the enzyme B-galactosidase is split into two complementary portions (EA and ED). The fragment ED is fused to cAMP and in the assay format competes with endogenous cAMP for binding to a cAMP specific antibody. Activated B-Gal is formed when exogenous EA fragment binds to free ED-cAMP (not bound to cAMP specific antibody). Activated enzyme levels are detected through conversion of B-gal chemiluminescent substrate which generates a detectable luminescence signal and read on standard microtiter plate.
The methodology for detection of cAMP using EFC requires incubation with 20 μL of cAMP XS+ED/CL lysis cocktail for one hour followed by incubation with 20 μL cAMP XS+EA reagent for three hours at room temperature. Microplates are read following signal generation with a PerkinElmer Envision instrument utilizing chemiluminescent signal detection. Compound activity is analyzed using CBIS data analysis suite (ChemInnovation, CA). Percentage activity is calculated using the following formula: […]
Method 3: Activation of GLP-1 receptor is known to stimulate cyclic AMP (cAMP) production in cells which indicates primary coupling to the Gas subunit of the G protein heterotrimeric complex.
To optimize functional activity directed toward Gas coupling, a HEK293/CRE-Luc cell line developed by HDB stably expressing the GLP-1 Receptor was used. […]

T1 sequence (P43220 24-463): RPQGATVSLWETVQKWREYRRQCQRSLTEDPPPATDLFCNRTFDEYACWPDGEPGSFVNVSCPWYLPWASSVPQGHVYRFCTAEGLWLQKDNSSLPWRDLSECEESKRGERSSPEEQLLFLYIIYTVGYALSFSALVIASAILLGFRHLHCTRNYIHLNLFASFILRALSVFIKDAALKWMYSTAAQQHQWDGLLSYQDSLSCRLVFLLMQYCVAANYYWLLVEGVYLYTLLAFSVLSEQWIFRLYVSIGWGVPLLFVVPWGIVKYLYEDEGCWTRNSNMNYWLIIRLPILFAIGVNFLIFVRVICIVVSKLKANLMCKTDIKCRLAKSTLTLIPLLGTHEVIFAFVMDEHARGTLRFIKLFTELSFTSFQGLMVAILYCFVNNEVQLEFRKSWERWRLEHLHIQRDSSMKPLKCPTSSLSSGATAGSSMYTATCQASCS

Going from `CNc1cc(-n2ccn(-c3c4c(nn3-c3cc(C)c(F)c(C)c3)CCN(C(=O)c3cc5cc(C6CCOCC6)ccn5c3C3(c5noc(=O)[nH]5)CC3)[C@H]4C)c2=O)ccc1P(C)(C)=O` [Compound 3] to `CCP(=O)(CC)c1ccc(-n2ccn(-c3c4c(nn3-c3cc(C)c(F)c(C)c3)CCN(C(=O)c3cc5cc(C6CCOCC6)ccn5c3C3(c5noc(=O)[nH]5)CC3)[C@H]4C)c2=O)cc1NC` [Compound 21, 3-(1-{2-[(4S)-3-{3-[4-(diethylphosphoryl)-3-(methylamino)phenyl]-2-oxo-2,3-dihydro-1H-imidazol-1-yl}-2-(4-fluoro-3,5-dimethylphenyl)-4-methyl-2H,4H,5H,6H,7H-pyrazolo[4,3-c]pyridine-5-carbonyl]-7-(oxan-4-yl)indolizin-3-yl}cyclopropyl)-4,5-dihydro-1,2,4-oxadiazol-5-one], the EC50 falls from 0.07 nM to 0.02 nM (3.5-fold). The second is the more potent here.

`CNc1cc(-n2ccn(-c3c4c(nn3-c3ccc(F)c(C5CC5)c3)CCN(C(=O)c3cc5cc(C6CCOCC6)ccn5c3C3(c5noc(=O)[nH]5)CC3)[C@H]4C)c2=O)ccc1P(C)(C)=O` [Compound 4] and `[2H]C([2H])([2H])Nc1cc(-n2ccn(-c3c4c(nn3-c3ccc(F)c(C5CC5)c3)CCN(C(=O)c3cc5cc(C6CCOCC6)ccn5c3C3(c5noc(=O)[nH]5)CC3)[C@H]4C)c2=O)ccc1P(C)(C)=O` [Compound 6] are within 1.5-fold of each other in EC50: 0.085 nM for the first, 0.089 nM for the second.

Compared with `CCP(=O)(CC)c1ccc(-n2ccn(-c3c4c(nn3-c3ccc(F)c(C5CC5)c3)CCN(C(=O)c3cc5cc(C6CCOCC6)ccn5c3C3(c5noc(=O)[nH]5)CC3)[C@H]4C)c2=O)cc1NC` [Compound 5], `CCP(=O)(CC)c1ccc(-n2ccn(-c3c4c(nn3-c3cc(C)c(F)c(C)c3)CCN(C(=O)c3cc5cc(C6CCOCC6)cnn5c3C3(c5noc(=O)[nH]5)CC3)[C@H]4C)c2=O)cc1NC` [Compound 26, 3-(1-{6-[(4S)-3-{3-[4-(diethylphosphoryl)-3-(methylamino)phenyl]-2-oxo-2,3-dihydro-1H-imidazol-1-yl}-2-(4-fluoro-3,5-dimethylphenyl)-4-methyl-2H,4H,5H,6H,7H-pyrazolo[4,3-c]pyridine-5-carbonyl]-3-(oxan-4-yl)pyrrolo[1,2-b]pyridazin-7-yl}cyclopropyl)-4,5-dihydro-1,2,4-oxadiazol-5-one] is 7.9-fold lower in EC50: 0.11 nM for the first, 0.014 nM for the second. The second is the more potent here.

`CCP(=O)(CC)c1ccc(-n2ccn(-c3c4c(nn3-c3cc(C)c(F)c(C)c3)CCN(C(=O)c3sc5cc(C6CCOCC6)ccc5c3C3(c5noc(=O)[nH]5)CC3)[C@H]4C)c2=O)cc1NC` [Compound 18, 3-(1-{2-[(4S)-3-{3-[4-(diethylphosphoryl)-3-(methylamino)phenyl]-2-oxo-2,3-dihydro-1H-imidazol-1-yl}-2-(4-fluoro-3,5-dimethylphenyl)-4-methyl-2H,4H,5H,6H,7H-pyrazolo[4,3-c]pyridine-5-carbonyl]-6-(oxan-4-yl)-1-benzothiophen-3-yl}cyclopropyl)-4,5-dihydro-1,2,4-oxadiazol-5-one] and `CCP(=O)(CC)c1ccc(-n2ccn(-c3c4c(nn3-c3cc(C)c(F)c(C)c3)CCN(C(=O)c3oc5cc(C6CCOCC6)ccc5c3C3(c5noc(=O)[nH]5)CC3)[C@H]4C)c2=O)cc1NC` [Compound 19, 3-(1-{2-[(4S)-3-{3-[4-(diethylphosphoryl)-3-(methylamino)phenyl]-2-oxo-2,3-dihydro-1H-imidazol-1-yl}-2-(4-fluoro-3,5-dimethylphenyl)-4-methyl-2H,4H,5H,6H,7H-pyrazolo[4,3-c]pyridine-5-carbonyl]-6-(oxan-4-yl)-1-benzofuran-3-yl}cyclopropyl)-4,5-dihydro-1,2,4-oxadiazol-5-one] are within 1.5-fold of each other in EC50: 0.061 nM for the first, 0.049 nM for the second.

`CCP(=O)(CC)c1ccc(-n2ccn(-c3c4c(nn3-c3cc(C)c(F)c(C)c3)CCN(C(=O)c3cn5cc(C6CCOCC6)ccc5c3C3(c5noc(=O)[nH]5)CC3)[C@H]4C)c2=O)cc1NC` [Compound 20, 3-(1-{2-[(4S)-3-{3-[4-(diethylphosphoryl)-3-(methylamino)phenyl]-2-oxo-2,3-dihydro-1H-imidazol-1-yl}-2-(4-fluoro-3,5-dimethylphenyl)-4-methyl-2H,4H,5H,6H,7H-pyrazolo[4,3-c]pyridine-5-carbonyl]-6-(oxan-4-yl)indolizin-1-yl}cyclopropyl)-4,5-dihydro-1,2,4-oxadiazol-5-one] and `CCP(=O)(CC)c1ccc(-n2ccn(-c3c4c(nn3-c3cc(C)c(F)c(C)c3)CCN(C(=O)c3[nH]c5cc(C6CCOCC6)ccc5c3C3(c5noc(=O)[nH]5)CC3)[C@H]4C)c2=O)cc1NC` [Compound 28, 3-(1-{2-[(4S)-3-{3-[4-(diethylphosphoryl)-3-(methylamino)phenyl]-2-oxo-2,3-dihydro-1H-imidazol-1-yl}-2-(4-fluoro-3,5-dimethylphenyl)-4-methyl-2H,4H,5H,6H,7H-pyrazolo[4,3-c]pyridine-5-carbonyl]-6-(oxan-4-yl)-1H-indol-3-yl}cyclopropyl)-2,5-dihydro-1,2,4-oxadiazol-5-one] are within 1.5-fold of each other in EC50: 0.03 nM for the first, 0.033 nM for the second.

Compared with `CCP(=O)(CC)c1ccc(-n2ccn(-c3c4c(nn3-c3cc(C)c(F)c(C)c3)CCN(C(=O)c3nn5cc(C6CCOCC6)cnc5c3C3(c5noc(=O)[nH]5)CC3)[C@H]4C)c2=O)cc1NC` [Compound 24], `CCP(=O)(CC)c1ccc(-n2ccn(-c3c(-c4cc(C)c(F)c(C)c4)nn4c3C(C)N(C(=O)c3nc5cc(C6CCOCC6)ccn5c3C3(c5noc(=O)[nH]5)CC3)CC4)c2=O)cc1NC` (stereo not shown) [Compound 29] is 160-fold higher in EC50: 0.18 nM for the first, 29 nM for the second.

`CCP(=O)(CC)c1ccc(-n2ccn(-c3c(-c4cc(C)c(F)c(C)c4)nn4c3C(C)N(C(=O)c3sc5cc(C6CCOCC6)ccc5c3C3(c5noc(=O)[nH]5)CC3)CC4)c2=O)cc1NC` (stereo not shown) [Compound 30] was tested, and the EC50 was 0.32 nM.
